These results are taken from patent publication US9932340B2, “Substituted indoles” (AbbVie Inc., priority 2014, dated 2018).

The term IC50 denotes the concentration that gives 50% inhibition.

Chain of SUV420H1 enzyme (Q4FZB7 whole entry): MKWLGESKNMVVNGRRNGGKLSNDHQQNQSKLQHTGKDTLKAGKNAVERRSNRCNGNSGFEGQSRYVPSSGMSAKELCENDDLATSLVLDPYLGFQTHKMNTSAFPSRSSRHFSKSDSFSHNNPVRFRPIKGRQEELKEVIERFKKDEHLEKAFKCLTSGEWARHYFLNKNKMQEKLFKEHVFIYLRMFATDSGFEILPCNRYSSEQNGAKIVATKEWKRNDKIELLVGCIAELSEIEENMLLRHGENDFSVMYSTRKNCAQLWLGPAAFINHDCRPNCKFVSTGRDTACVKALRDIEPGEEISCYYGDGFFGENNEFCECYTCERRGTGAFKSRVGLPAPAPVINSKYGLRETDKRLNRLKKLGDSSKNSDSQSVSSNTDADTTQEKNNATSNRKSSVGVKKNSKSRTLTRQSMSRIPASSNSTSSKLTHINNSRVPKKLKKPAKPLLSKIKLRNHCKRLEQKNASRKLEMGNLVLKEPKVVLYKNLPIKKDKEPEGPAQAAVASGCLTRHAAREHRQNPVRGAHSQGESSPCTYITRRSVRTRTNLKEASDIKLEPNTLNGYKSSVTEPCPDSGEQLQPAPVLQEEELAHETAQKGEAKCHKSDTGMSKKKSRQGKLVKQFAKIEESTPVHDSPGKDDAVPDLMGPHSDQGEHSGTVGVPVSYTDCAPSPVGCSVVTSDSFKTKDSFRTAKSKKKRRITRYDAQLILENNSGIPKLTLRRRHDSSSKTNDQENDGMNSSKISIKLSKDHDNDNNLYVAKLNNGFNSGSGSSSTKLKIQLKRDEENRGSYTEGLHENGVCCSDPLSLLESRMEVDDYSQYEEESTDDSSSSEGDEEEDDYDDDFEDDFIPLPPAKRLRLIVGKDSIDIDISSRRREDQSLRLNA

This assay has as its target SUV420H1 enzyme (Homo sapiens, UniProt Q4FZB7). The assay can be described thus: TR-FRET SAH SUV420H1 enzyme inhibition assay. It counts as biochemical. Conditions: Histone Peptide H4(8-30)me1 and SAM, overnight at room temp, TR-FRET detection of SAH, read-out: TR-FRET SAH_SUV420H1 IC50. In a few lines: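 SUV420H1 (90 nM) preincubated 30 min with compound (3-fold dilutions, 50 to 0.00075 μM), then H4(8-30)me1 peptide 5 nM and SAM 4 nM added, overnight at room temp. SAH product detected by TR-FRET with Tb anti-SAH antibody and Oregon Green-SAH in RIPA buffer, 4 h; IC50 from Hill fit, asymptotes fixed 0-100%.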
(In general: TR-FRET usually uses a lanthanide donor and a delayed reading to cut background.)
For `Nc1ncnc2c1ncn2Cc1cc(Cl)cc2cc(CNC(=O)[C@H]3CCC(=O)N3)[nH]c12` [Example 118, (2R)—N-({7-[(6-amino-9H-purin-9-yl)methyl]-5-chloro-1H-indol-2-yl}methyl)-5-oxopyrrolidine-2-carboxamide], the IC50 amounted to 18.4 µM.

`Cc1cc(C#N)ccc1C(=O)NCc1cc2cc(C3=CCOCC3)cc(Cn3cnc4c(N)ncnc43)c2[nH]1` [Example 304, N-({7-[(6-amino-9H-purin-9-yl)methyl]-5-(3,6-dihydro-2H-pyran-4-yl)-1H-indol-2-yl}methyl)-4-cyano-2-methylbenzamide]: the IC50 turned out to be 0.0491 µM.

On to `CC(=O)N1CCC=C(c2cc(Cn3cnc4c(N)ncnc43)c3[nH]c(CN)cc3c2)C1` [Example 16, 1-[5-{2-(aminomethyl)-7-[(6-amino-9H-purin-9-yl)methyl]-1H-indol-5-yl}-3,6-dihydropyridin-1(2H)-yl]ethanone], for which the IC50 was 0.44 µM.

In the case of `COc1cc(C#N)ccc1CNCc1cc2cc(Cl)cc(Cn3cnc4c(N)ncnc43)c2[nH]1` [Example 311, 4-{[({7-[(6-amino-9H-purin-9-yl)methyl]-5-chloro-1H-indol-2-yl}methyl)amino]methyl}-3-methoxybenzonitrile], the concentration for half-maximal inhibition (IC50) is 3.24 µM.

For the molecule `COc1cc(C(=O)NCc2cc3cc(Cl)cc(Cn4cnc5c(N)ncnc54)c3[nH]2)ccc1C` [Example 300, N-({7-[(6-amino-9H-purin-9-yl)methyl]-5-chloro-1H-indol-2-yl}methyl)-3-methoxy-4-methylbenzamide], the IC50 stood at 4.15 µM.

For the molecule `Nc1ncnc2c1ncn2Cc1cc(Cl)cc2cc(CNC(=O)c3cnc4[nH]ccc4c3Cl)[nH]c12` [Example 348, N-({7-[(6-amino-9H-purin-9-yl)methyl]-5-chloro-1H-indol-2-yl}methyl)-4-chloro-1H-pyrrolo[2,3-b]pyridine-5-carboxamide], the IC50 was found to be 7.27 µM.

Consider `Nc1ncnc2c1ncn2Cc1cc(Cl)cc2cc(CNC(=O)c3cccc(F)c3)[nH]c12` [Example 224, N-({7-[(6-amino-9H-purin-9-yl)methyl]-5-chloro-1H-indol-2-yl}methyl)-3-fluorobenzamide], for which the IC50 is 2.77 µM.

Consider `Nc1ncnc2c1ncn2Cc1cc(Cl)cc2cc(CNC(=O)c3ccc4[nH]ncc4c3)[nH]c12` [Example 346, N-({7-[(6-amino-9H-purin-9-yl)methyl]-5-chloro-1H-indol-2-yl}methyl)-1H-indazole-5-carboxamide], for which the half-inhibitory concentration (IC50) came to 4.66 µM.

In the case of `CC1CC1C(=O)NCc1cc2cc(Cl)cc(Cn3cnc4c(N)ncnc43)c2[nH]1` (stereo not shown) [Example 109, N-({7-[(6-amino-9H-purin-9-yl)methyl]-5-chloro-1H-indol-2-yl}methyl)-2-methylcyclopropanecarboxamide], the IC50 amounted to 10.6 µM.

On to `CCC(N)c1cc2cc(Cl)cc(Cn3cnc4c(N)ncnc43)c2[nH]1` (stereo not shown) [Example 91, 9-{[2-(1-aminopropyl)-5-chloro-1H-indol-7-yl]methyl}-9H-purin-6-amine], for which the IC50 was found to be 2.67 µM.

With `Cc1noc(N)c1C(=O)NCc1cc2cc(Cl)cc(Cn3cnc4c(N)ncnc43)c2[nH]1` [Example 155, 5-amino-N-({7-[(6-amino-9H-purin-9-yl)methyl]-5-chloro-1H-indol-2-yl}methyl)-3-methyl-1,2-oxazole-4-carboxamide], the half-maximal inhibitory concentration (IC50) came to 3.59 µM.

As for `C=Cc1ccc2cc(CN)[nH]c2c1Cn1cnc2c(N)ncnc21` [Example 59, 9-{[2-(aminomethyl)-6-ethenyl-1H-indol-7-yl]methyl}-9H-purin-6-amine], the IC50 turned out to be 7.51 µM.

Turning to `CS(=O)(=O)c1cc(CNCc2cc3cc(Cl)cc(Cn4cnc5c(N)ncnc54)c3[nH]2)ccc1F` [Example 263, 9-{[5-chloro-2-({[4-fluoro-3-(methylsulfonyl)benzyl]amino}methyl)-1H-indol-7-yl]methyl}-9H-purin-6-amine], the half-maximal inhibitory concentration (IC50) is 1.75 µM.

With `CS(=O)(=O)c1ccccc1C(=O)NCc1cc2cc(Cl)cc(Cn3cnc4c(N)ncnc43)c2[nH]1` [Example 265, N-({7-[(6-amino-9H-purin-9-yl)methyl]-5-chloro-1H-indol-2-yl}methyl)-2-(methylsulfonyl)benzamide], the IC50 turned out to be 2.14 µM.

For `Cc1ccc(-c2cc(Cn3cnc4c(N)ncnc43)c3[nH]c(CN)cc3c2)cc1` [Example 30, 9-{[2-(aminomethyl)-5-(4-methylphenyl)-1H-indol-7-yl]methyl}-9H-purin-6-amine], the IC50 was determined as 1.17 µM.

Turning to `Nc1ncnc2c1ncn2Cc1cc(Cl)cc2cc(CNC(=O)c3ccc4[nH]nnc4c3)[nH]c12` [Example 331, N-({7-[(6-amino-9H-purin-9-yl)methyl]-5-chloro-1H-indol-2-yl}methyl)-1H-benzotriazole-6-carboxamide], the IC50 was found to be 2.58 µM.

For `COc1ccsc1C(=O)NCc1cc2cc(Cl)cc(Cn3cnc4c(N)ncnc43)c2[nH]1` [Example 159, N-({7-[(6-amino-9H-purin-9-yl)methyl]-5-chloro-1H-indol-2-yl}methyl)-3-methoxythiophene-2-carboxamide], the IC50 is more than 50 µM.

On to `Nc1ncnc2c1ncn2Cc1cc(Cl)cc2cc(CNC(=O)c3ccc4[nH]ccc4n3)[nH]c12` [Example 343, N-({7-[(6-amino-9H-purin-9-yl)methyl]-5-chloro-1H-indol-2-yl}methyl)-1H-pyrrolo[3,2-b]pyridine-5-carboxamide], for which the IC50 was 4.82 µM.

For `Nc1ncnc2c1ncn2Cc1cc(Cl)cc2cc(CNC(=O)c3ccccc3C(=O)N3CCCC3)[nH]c12` [Example 320, N-({7-[(6-amino-9H-purin-9-yl)methyl]-5-chloro-1H-indol-2-yl}methyl)-2-(pyrrolidin-1-ylcarbonyl)benzamide], the IC50 was 8.03 µM.

Consider `COc1cccc(C(=O)NCc2cc3cc(Cl)cc(Cn4cnc5c(N)ncnc54)c3[nH]2)c1` [Example 259, N-({7-[(6-amino-9H-purin-9-yl)methyl]-5-chloro-1H-indol-2-yl}methyl)-3-methoxybenzamide], for which the IC50 is 3.53 µM.

`N#Cc1ccc(C(=O)NCc2cc3cc(Cl)cc(Cn4cnc5c(N)ncnc54)c3[nH]2)cn1` [Example 240, N-({7-[(6-amino-9H-purin-9-yl)methyl]-5-choro-1H-indol-2-yl}methyl)-6-cyanopyridine-3-carboxamide]: the IC50 is 0.164 µM.

`Cn1nnc2cc(C(=O)NCc3cc4cc(Cl)cc(Cn5cnc6c(N)ncnc65)c4[nH]3)ccc21` [Example 352, N-({7-[(6-amino-9H-purin-9-yl)methyl]-5-chloro-1H-indol-2-yl}methyl)-1-methyl-1H-benzotriazole-5-carboxamide]: the IC50 worked out at 1.28 µM.

As for `CS(=O)(=O)c1cccc(CNCc2cc3cc(Cl)cc(Cn4cnc5c(N)ncnc54)c3[nH]2)c1` [Example 262, 9-{[5-chloro-2-({[3-(methylsulfonyl)benzyl]amino}methyl)-1H-indol-7-yl]methyl}-9H-purin-6-amine], the IC50 worked out at 2.75 µM.

For the molecule `CCc1ccccc1C(=O)NCc1cc2cc(Cl)cc(Cn3cnc4c(N)ncnc43)c2[nH]1` [Example 296, N-({7-[(6-amino-9H-purin-9-yl)methyl]-5-chloro-1H-indol-2-yl}methyl)-2-ethylbenzamide], the IC50 came to 0.623 µM.

Take `NCc1cc2c(-c3cccc(C(N)=O)c3)ccc(Cn3cnc4c(N)ncnc43)c2[nH]1` [Example 84, 3-{2-(aminomethyl)-7-[(6-amino-9H-purin-9-yl)methyl]-1H-indol-4-yl}benzamide]: the IC50 stood at 0.569 µM.
